Publication doi:10.1101/2025.11.05.686689v1 (biorxiv, 2025)

Molecular target: CAPON (NOS1AP), recombinant, C-terminal His tag (Homo sapiens, UniProt O75052)
Experiment: microscale thermophoresis
Type: binding

Chain of CAPON (NOS1AP), recombinant, C-terminal His tag (O75052 whole entry): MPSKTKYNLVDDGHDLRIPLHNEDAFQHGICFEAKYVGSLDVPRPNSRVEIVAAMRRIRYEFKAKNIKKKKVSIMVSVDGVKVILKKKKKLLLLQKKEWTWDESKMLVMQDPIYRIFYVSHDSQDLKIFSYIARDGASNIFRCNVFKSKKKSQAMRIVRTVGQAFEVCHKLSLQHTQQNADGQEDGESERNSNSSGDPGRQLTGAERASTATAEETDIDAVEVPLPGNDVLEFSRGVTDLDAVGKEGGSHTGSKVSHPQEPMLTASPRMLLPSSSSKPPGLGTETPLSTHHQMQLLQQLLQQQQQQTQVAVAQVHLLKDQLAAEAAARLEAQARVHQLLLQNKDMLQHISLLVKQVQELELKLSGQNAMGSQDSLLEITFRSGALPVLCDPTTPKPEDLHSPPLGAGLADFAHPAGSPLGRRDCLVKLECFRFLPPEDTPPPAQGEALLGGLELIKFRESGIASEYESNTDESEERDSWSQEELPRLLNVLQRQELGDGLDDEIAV

COc1ccc(NC(=O)c2ccco2)cc1NC(=O)c1cc2ccccc2cc1OC [MA32]
Kd: 74 ± 15 µM
